Measured values: patent publication US12338263B2, “Antibacterial aminoglycoside derivatives” (priority 2019, dated 2025)

Experiments:
[1] = Study on pharmacokinetics in mice; format: in vivo, CD-1 mice; conditions: mouse, plasma, CD-1 male mice, 1 mg/kg single intravenous injection
Experimental: CD-1 male mice aged 7 to 10 weeks were selected and treated by intravenous administration at the dose of 1 mg/kg. The mice were fasted for at least 12 hours before the administration, and resumed feeding 4 hours after the administration. The mice were free to drink during the entire experiment.
On the day of the experiment, the animals in the intravenous group were administered with corresponding compound by a single injection via tail vein with an administration volume of 5 mL/kg. The animals were weighed before the administration, and the administration volume was calculated based on the body weight. The sample collection time was: 0.083, 0.25, 0.5, 1, 2, 4, 8, and 24 h. Approximately 30 μL whole blood was collected through the saphenous vein at each time point to prepare plasma for high performance liquid chromatography-tandem mass spectrometry (LC-MS/MS) to determine the concentration.
All animals were subjected to euthanasia under CO2 anesthesia after the PK samples at the last time point were collected. The non-compartmental model of the pharmacokinetic software WinNonlin™ Version 6.3 (Pharsight, Mountain View, CA) was used to process the data of plasma concentration, and the linear log-trapezoidal method was used to calculate the pharmacokinetic parameters.

[2] = test system: Klebsiella pneumoniae ATCC-BAA-1705; assay: Drug efficacy in mice (mouse pneumonia model); format: in vivo; conditions: CD-1 mice, read at 24 h, FIG. 2
Experimental: 21 CD-1 mice were divided into 7 cages, 3 mice per cage, and were injected intraperitoneally with the immunosuppressant cyclophosphamide (150 mpk) on the 4th day.
On the first day, 7 cages of mice were injected intraperitoneally again with the immunosuppressant cyclophosphamide (100 mpk). The strain Kpn ATCC-BAA-1705 (Klebsiella pneumoniae ATCC-BAA-1705) was recovered on a MHA plate. The recovered colonies were picked and dissolved in saline to prepare Kpn ATCC-BAA-1705 bacterial solution with a concentration of 4.00E+08 CFU/mL for later use in mouse lung infection. The amount of bacterial solution infected in the lung of experimental mice was 50 μL/mouse, that is, the inoculation amount was 2.00E+07 CFU/mouse. At 2 h and 24 h infection, the lung tissue of the mice in control group was taken and placed in 5 mL saline, homogenized, and dotted on a plate with gradient dilution.
The specific administration of mice was as follows: • (1) 2 h after infection: At the end of 2 h after infection, the lung tissue of the mice in the first cage was taken and placed in 5 mL saline, homogenized, and dotted on a plate with gradient dilution, two duplications for each mouse. The amount of bacteria loaded in the lung tissue of the mouse was counted. Mice in the third and fourth cages were injected respectively with 30 mpk and 10 mpk compound Plazomicin subcutaneously, mice in the fifth and sixth cages were injected respectively with 30 mpk and 10 mpk compound subcutaneously, and mice in the seventh cage were injected with 100 mpk meropenem subcutaneously. • (2) 10 h after infection: Mice in the third and fourth cages were injected respectively with 30 mpk and 10 mpk plazomicin subcutaneously, mice in the fifth and sixth cages were injected respectively with 30 mpk and 10 mpk compound 1 subcutaneously, and mice in the seventh cage were injected with 100 mpk meropenem subcutaneously. At the end of 24 h infection, the lung tissue of the mice in the second to seventh cages was taken and placed in 5 mL saline, homogenized, and dotted on a plate with gradient dilution, two duplications for each mouse. The amount of bacteria carried in the lung tissue of the mouse was counted, and the experimental results were summarized and shown in FIG. 2.

cochlear hair cells = assay: Auditory safety: hair cell staining and counting on the basilar membrane of the cochlea; format: in vivo, guinea pigs
Experimental: (§1) Healthy adult guinea pigs (150-250 g) were employed as the research objects, and were randomly divided into saline control group, gentamicin group, compound Plazomicin group and Compound 1 group, with 8 animals in each group. Subcutaneous administration is used, and the following assays were carried out during and after the administration for 14 consecutive days: • 1. To analyze the effects of different drugs on the auditory function of guinea pigs, the compound action potential (CAP) of animals was recorded on the 14th day (29th day, i.e., 4 weeks) after administration. The results obtained were analyzed and the changes of the threshold shift, amplitude, latency and other indicators among different treatment groups were compared. • 2. After the different groups of animals were processed and the auditory function data thereof were collected, the cochlea of the animals was taken out for fixation and staining. Surface preparation of basilar membrane of the cochlea on one side was performed to count the loss of hair cells so as to make a cochlea map, and the cochlea on the other side was decalcified and frozen sectioned. The density of spiral ganglion neurons was counted and compared among groups. Research Results: 1. Administration Method and Treatment
(§2) Gentamicin from Dalian Meilun Biotechnology Co., Ltd., and Plazomicin and Compound 1 from WuXi AppTec (WuHan) Co., Ltd. are used, the solution of which were prepared just before use each time by using saline for dissolution to the concentration of 50 mg/mL, and the injection dose was 100 mg/kg body weight. Method: subcutaneous injection, and confirmation of no liquid leakage after each injection.
In order to compare the effects of different drugs on hair cells, hair cell staining and counting on the whole basilar membrane of the cochlea are performed. […] The Plazomicin group had 11.2-28.1% loss of outer hair cells in the high frequency (70-100% from the apical turn) and 16.7-24.2% loss of the outer hair cells at the beginning of the apical turn (10-20%). However, in the Compound 1 group, the loss of outer hair cells only occurred in the low-frequency region (from the top turn −40%), in which the loss rate of outer hair cells was about 2.5-11%, and the outer hair cells were relatively intact in the high frequency area (see FIG. 6 B).

spiral ganglion neurons = assay: Auditory safety: density of spiral ganglion neurons; format: in vivo, guinea pigs; conditions: guinea pig, in vivo, sc, 100 mg/kg
Experimental: as §1, §2
The cochlea of the guinea pig was defined as Turn 1, Turn 2, Turn 3, and Turn 4 from the basal to the apical turn. The spiral ganglion neurons (SGNs) were stained with TuJ on frozen sections, and the density thereof in a specific area were counted and compared between groups. […] Through the two-way ANOVA, there was a significant difference between the groups, F(3, 74)=35.43, p<0.0001 (see FIG. 7).

For CN[C@@H]1[C@@H](O)[C@@H](O[C@@H]2[C@@H](O)[C@H](O[C@H]3OC(CNCCOCCONC(=N)N)=CC[C@H]3N)[C@@H](N)C[C@H]2NC(=O)[C@@H](O)CCN)OC[C@]1(C)O [Compound 1], the AUC ([1]; read-out: Area Under the Curve AUC) was 1.92 µM·h, the clearance ([1]; read-out: Clearance Rate Cl) was 15.1 mL/min/kg and the half-life ([1]; read-out: Half-Life T1/2 (converted)) was 23.8 min. The Cmax ([1]; read-out: Maximum Concentration Cmax) was 7.09 µM, the Vd ([1]; read-out: Volume of Distribution Vd) was 0.369 L/kg and the “in vivo activity in lung infection model (bacteria in lung tissue)” value ([2]; 10 mpk and 30 mpk subcutaneously 2 h and 10 h after infection) was “good in vivo activity”. The “efficacy at a dose of 10 mpk in lung infection model” value ([2]; 10 mpk subcutaneously 2 h and 10 h after infection) was “equivalent to that of Plazomicin at a dose of 30 mpk”, the “efficacy compared with Plazomicin in lung infection model” value ([2]; subcutaneously 2 h and 10 h after infection) was “better than that of Plazomicin” and the “loss rate of outer hair cells” value (cochlear hair cells; guinea pig, in vivo, 29 day) was 2.5-11%. For the same compound, the “damage to inner hair cells (overall)” value (cochlear hair cells; guinea pig, in vivo, sc, 100 mg/kg) was “almost undamaged”, the “hair cell toxicity (overall)” value (cochlear hair cells; guinea pigs, 100 mg/kg subcutaneous 14 days) was “significantly lower than that of the Gentamicin and the Plazomicin” and the “damage to spiral ganglion neurons (SGN density vs Control group)” value (spiral ganglion neurons) was “no damage to spiral ganglion neurons”.
